Biological target: Trx-6×His-BCL6 (human BCL6 BTB domain covering amino-acid sequence 5-129) (Homo sapiens (Human), UniProt P41182)
Assay: HTRF in vitro assay (BCL6 / BCOR-AF633 peptide)
Assay type: binding
Conditions: for activity in the HTRF assay: result in words
Procedure: The % inhibition at each concentration was calculated by normalising FRET ratio to the appropriate high (DMSO with all reagents) and low (DMSO without BCL6) controls.

[1] = further generated data, 1 nM Trx-6×His-BCL6, 300 nM BCOR-AF633 peptide, 0.5 nM anti-6×His-Terbium cryptate
[2] = initially generated data, 10 nM Trx-6×His-BCL6, 300 nM BCOR-AF633 peptide, 1 nM anti-6×His-Terbium cryptate

SMILES: COc1c(Cl)ncnc1Nc1ccc2c(c1)n(C)c(=O)n2C [5-((6-chloro-5-methoxypyrimidin-4-yl)amino)-1,3-dimethyl-1,3-dihydro-2H-benzo[d]imidazol-2-one]
- activity in the HTRF assay: did not exhibit the desired activity

SMILES: Cn1c(=O)n(CC2CCN2)c2cc(Nc3ccnc(Cl)c3C#N)ccc21 (stereo not shown) [4-((3-(azetidin-2-ylmethyl)-1-methyl-2-oxo-2,3-dihydro-1H-benzo[d]imidazol-5-yl)amino)-2-chloronicotinonitrile]
- activity in the HTRF assay: did not exhibit the desired activity

SMILES: CCC1(Cn2c(=O)n(C)c3ccc(Nc4nc(-n5ccc(C(F)(F)F)n5)ncc4Cl)cc32)CN(C)C(=O)O1 (stereo not shown) [Example 20m]
- HTRF pIC50 [1]: 5.97

SMILES: COC(=O)c1cc(Nc2ccc3c(c2)n(CCC(C)C(=O)OC)c(=O)n3C)c(C#N)c(Cl)n1 (stereo not shown) [Example 2a, Methyl 6-chloro-5-cyano-4-[[3-(4-methoxy-3-methyl-4-oxo-butyl)-1-methyl-2-oxo-benzimidazol-5-yl]amino]pyridine-2-carboxylate]
- HTRF pIC50 [1]: 6.18
- HTRF pIC50 [2]: 6.41

SMILES: COC(=O)C(C)CCn1c(=O)n(C)c2ccc(Nc3cc(-c4nc(C)no4)nc(Cl)c3C#N)cc21 (stereo not shown) [Example 5, Methyl 4-[6-[[2-chloro-3-cyano-6-(3-methyl-1,2,4-oxadiazol-5-yl)-4-pyridyl]amino]-3-methyl-2-oxo-benzimidazol-1-yl]-2-methyl-butanoate]
- HTRF pIC50 [1]: 6.19
- HTRF pIC50 [2]: 5.99

SMILES: Cn1c(=O)n(CCC(C)(C)O)c2cc(Nc3c(Cl)cncc3Cl)ccc21 [5-((3,5-dichloropyridin-4-yl)amino)-3-(3-hydroxy-3-methylbutyl)-1-methyl-1,3-dihydro-2H-benzo[d]imidazol-2-one]
- activity in the HTRF assay: did not exhibit the desired activity

SMILES: COC(=O)C1CCCC1Cn1c(=O)n(C)c2ccc(Nc3ccnc(Cl)c3C#N)cc21 (stereo not shown) [Example 11, Methyl 2-[[6-[(2-chloro-3-cyano-4-pyridyl)amino]-3-methyl-2-oxo-benzimidazol-1-yl]methyl]cyclopentanecarboxylate]
- HTRF pIC50 [1]: 5.72
- HTRF pIC50 [2]: 5.71

SMILES: COCCNc1cc(Nc2ccc3c(c2)n(C)c(=O)n3C)n2nccc2n1 [5-((5-((2-methoxyethyl)amino)pyrazolo[1,5-a]pyrimidin-7-yl)amino)-1,3-dimethyl-1,3-dihydro-2H-benzo[d]imidazol-2-one]
- activity in the HTRF assay: did not exhibit the desired activity

SMILES: Cn1c(=O)n(CCC(C)(C)O)c2cc(Nc3nc(N4CCCC(CN5CCOCC5)C4)ncc3Cl)ccc21 (stereo not shown) [Example 42d, 5-((5-chloro-2-(3-(morpholinomethyl)piperidin-1-yl)pyrimidin-4-yl)amino)-3-(3-hydroxy-3-methylbutyl)-1-methyl-1,3-dihydro-2H-benzo[d]imidazol-2-one]
- HTRF pIC50 [1]: 6.54

SMILES: CCC1(Cn2c(=O)n(C)c3ccc(Nc4ccnc(Cl)c4C#N)cc32)CN(C)C(=O)O1 (stereo not shown) [Example 22e]
- HTRF pIC50 [1]: 5.88

SMILES: Cn1c(=O)n(CCS(C)(=O)=O)c2cc(Nc3ccnc(Cl)c3C#N)ccc21 [Example 18b, 2-chloro-4-((1-methyl-3-(2-(methylsulfonyl)ethyl)-2-oxo-2,3-dihydro-1H-benzo[d]imidazol-5-yl)amino)nicotinonitrile]
- HTRF pIC50 [1]: 5.31

SMILES: C[C@@H]1CCN(c2ncc(Cl)c(Nc3ccc4c(c3)n(CCC(C)(C)O)c(=O)n4C)n2)C[C@H](C)C1 [Example 35y, 5-((5-chloro-2-((3R,5S)-3,5-dimethylazepan-1-yl)pyrimidin-4-yl)amino)-3-(3-hydroxy-3-methylbutyl)-1-methyl-1,3-dihydro-2H-benzo[d]imidazol-2-one]
- HTRF pIC50 [1]: 5.70

SMILES: CN1CCC[C@@H]1Cn1c(=O)n(C)c2ccc(Nc3ccnc(Cl)c3C#N)cc21 [(R)-2-chloro-4-((1-methyl-3-((1-methylpyrrolidin-2-yl)methyl)-2-oxo-2,3-dihydro-1H-benzo[d]imidazol-5-yl)amino)nicotinonitrile]
- activity in the HTRF assay: did not exhibit the desired activity
